Results reported in ChEMBL document CHEMBL1201862, “PubChem BioAssay data set” (2004).
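Protocol summary: plate cells (96-well), add compound at 5 concentrations, incubate 48 h, interpolate endpoints linearly. GI50 is the concentration that inhibits growth by half.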 Activity calls are given as the source filed them. No stated cut-off is given here; in the data, active = GI50 up to about 1.1 µM and inactive = higher.

What was measured:
Test in all cases: NCI tumour cell line growth inhibition, 48 h
OVCAR-4 = system: OVCAR-4
SF-295 = system: SF-295
RPMI-8226 = system: RPMI-8226
HCT-116 = system: HCT-116
UO-31 = system: UO-31
HL-60 = system: HL-60
MDA-N = system: MDA-N
TK-10 = system: TK-10
U-251 = system: U-251
HOP-62 = system: HOP-62
SN12C = system: SN12C
IGROV-1 = system: IGROV-1
786-0 = system: 786-0
KM12 = system: KM12
HCC 2998 = system: HCC 2998
UACC-257 = system: UACC-257
LOX IMVI = system: LOX IMVI
NCI-H460 = system: NCI-H460
Malme-3M = system: Malme-3M
RXF 393 = system: RXF 393

Measured: GI50

CC1(C)CC23CC(C)(C)c4cccc(c42)OCc2ccc4ccc5ccc(nc5c4n2)COc2cccc1c23
inactive: OVCAR-4 > 50 µM | SF-295 > 50 µM | RPMI-8226 > 50 µM | HCT-116 > 50 µM | UO-31 > 50 µM | HL-60 > 50 µM | MDA-N > 50 µM | TK-10 > 50 µM | U-251 > 50 µM | HOP-62 > 50 µM | SN12C > 50 µM | IGROV-1 > 50 µM | 786-0 > 50 µM | KM12 > 50 µM | HCC 2998 > 50 µM | UACC-257 > 50 µM | LOX IMVI > 50 µM | NCI-H460 > 50 µM

COc1cc(C(c2ccc3c(c2)OCO3)N2C(=O)CCC2C(=O)O)cc(OC)c1OC (stereo not drawn)
inactive: OVCAR-4 > 100 µM | SF-295 > 100 µM | RPMI-8226 > 100 µM | HCT-116 > 100 µM | UO-31 > 100 µM | HL-60 > 100 µM | MDA-N > 100 µM | TK-10 > 100 µM | U-251 > 100 µM | HOP-62 > 100 µM | SN12C > 100 µM | IGROV-1 > 100 µM | 786-0 > 100 µM | KM12 > 100 µM | HCC 2998 > 100 µM | Malme-3M > 100 µM | UACC-257 > 100 µM | LOX IMVI > 100 µM | NCI-H460 > 100 µM

CN(/N=C/c1ccc(Cl)c(Cl)c1)C1=NCCN1
inactive: OVCAR-4 41.2 µM | SF-295 24.8 µM | RPMI-8226 24.8 µM | HCT-116 17.9 µM | MDA-N 15.7 µM | TK-10 46.2 µM | U-251 23.2 µM | HOP-62 17.4 µM | SN12C 29.9 µM | IGROV-1 27.1 µM | 786-0 16.4 µM | KM12 28.1 µM | HCC 2998 30.3 µM | Malme-3M 18.8 µM | UACC-257 20.1 µM | LOX IMVI 12.4 µM | NCI-H460 40.8 µM

COC(=O)Oc1nn(C(=O)OC)c(=O)c2ccccc12
inactive: SF-295 > 100 µM | RPMI-8226 > 100 µM | HCT-116 > 100 µM | UO-31 > 100 µM | HL-60 > 100 µM | MDA-N > 100 µM | TK-10 > 100 µM | U-251 > 100 µM | HOP-62 > 100 µM | SN12C > 100 µM | IGROV-1 > 100 µM | 786-0 > 100 µM | KM12 > 100 µM | HCC 2998 59.8 µM | Malme-3M 42.4 µM | UACC-257 > 100 µM | LOX IMVI > 100 µM

Cn1c(S)nnc1CNc1ccc(-c2nnc(S)n2C)cc1
inactive: OVCAR-4 > 100 µM | SF-295 > 100 µM | HCT-116 > 100 µM | UO-31 > 100 µM | HL-60 > 100 µM | MDA-N > 100 µM | TK-10 > 100 µM | U-251 > 100 µM | HOP-62 > 100 µM | SN12C > 100 µM | IGROV-1 > 100 µM | 786-0 > 100 µM | KM12 > 100 µM | HCC 2998 > 100 µM | Malme-3M > 100 µM | UACC-257 > 100 µM | LOX IMVI > 100 µM | NCI-H460 > 100 µM

O=C(Cc1ccccc1)NNc1nc(NNC(=O)c2ccncc2)nc(Nc2ccc(Cl)cc2)n1
inactive: OVCAR-4 > 10 µM | RPMI-8226 > 10 µM | UO-31 > 10 µM | HL-60 > 10 µM | MDA-N > 10 µM | TK-10 > 10 µM | U-251 > 10 µM | HOP-62 > 10 µM | SN12C > 10 µM | IGROV-1 > 10 µM | 786-0 > 10 µM | KM12 > 10 µM | HCC 2998 > 10 µM | Malme-3M > 10 µM | UACC-257 > 10 µM | LOX IMVI > 10 µM

Cc1cc(C)nc(NC(=O)c2ccc(Br)s2)c1
inactive: OVCAR-4 > 100 µM | SF-295 20.5 µM | RPMI-8226 3.3 µM | HCT-116 10.7 µM | UO-31 25.6 µM | MDA-N 31.8 µM | TK-10 > 100 µM | U-251 > 100 µM | HOP-62 > 100 µM | SN12C > 100 µM | IGROV-1 > 100 µM | 786-0 > 100 µM | KM12 > 100 µM | RXF 393 > 100 µM | HCC 2998 > 100 µM | Malme-3M > 100 µM | UACC-257 > 100 µM | LOX IMVI 35.3 µM | NCI-H460 > 100 µM

CSC(SC)=C1C(=O)N(c2ccccc2)N=C1C
inactive: OVCAR-4 34.3 µM | SF-295 25.9 µM | HCT-116 22.9 µM | MDA-N 34.8 µM | TK-10 22.1 µM | U-251 35.1 µM | HOP-62 35.4 µM | SN12C 30.7 µM | IGROV-1 29.3 µM | 786-0 23.2 µM | KM12 41.1 µM | RXF 393 25 µM | HCC 2998 46.6 µM | Malme-3M 21.7 µM | UACC-257 27.4 µM | LOX IMVI 34 µM | NCI-H460 23.9 µM

COC(=O)C1CCC(=O)N1CN(C(C)=O)c1cccc(O)c1 (stereo not drawn)
inactive: OVCAR-4 > 100 µM | SF-295 > 100 µM | RPMI-8226 > 100 µM | HCT-116 > 100 µM | UO-31 > 100 µM | HL-60 > 100 µM | MDA-N > 100 µM | TK-10 > 100 µM | U-251 > 100 µM | HOP-62 > 100 µM | SN12C > 100 µM | IGROV-1 > 100 µM | 786-0 > 100 µM | KM12 > 100 µM | RXF 393 > 100 µM | Malme-3M > 100 µM | UACC-257 > 100 µM | LOX IMVI > 100 µM | NCI-H460 > 100 µM

Cc1ccc(-c2n[nH]c(=O)n2N)cc1
inactive: OVCAR-4 > 100 µM | SF-295 > 100 µM | RPMI-8226 > 100 µM | HCT-116 > 100 µM | UO-31 > 100 µM | HL-60 > 100 µM | MDA-N > 100 µM | TK-10 > 100 µM | U-251 > 100 µM | HOP-62 > 100 µM | SN12C > 100 µM | IGROV-1 > 100 µM | 786-0 > 100 µM | KM12 > 100 µM | HCC 2998 > 100 µM | Malme-3M > 100 µM | UACC-257 > 100 µM | LOX IMVI > 100 µM | NCI-H460 > 100 µM

C=CCOc1ccc(C2(O)c3ccccc3C3=NCCCN32)cc1 (stereo not drawn)
inactive: OVCAR-4 > 71 µM | SF-295 51.5 µM | RPMI-8226 26.4 µM | HCT-116 49.9 µM | UO-31 51.8 µM | HL-60 35.7 µM | MDA-N 36.1 µM | TK-10 > 100 µM | U-251 43.2 µM | HOP-62 60.5 µM | SN12C > 73.6 µM | IGROV-1 28.6 µM | 786-0 38.3 µM | KM12 44.5 µM | HCC 2998 24.6 µM | Malme-3M 12.3 µM | UACC-257 21.4 µM | LOX IMVI 48.8 µM | NCI-H460 > 100 µM
